Experimental findings from US11472792B2, “Herbicidal mixtures” (SYNGENTA CROP PROTECTION AG, priority 2019, dated 2022) are described below.

Holding throughout (type): in vivo
The subject of test [1] is Abutilon theophrasti (ABUTH). In words: Herbicidal efficacy, pre-emergence application (glasshouse). To be noted: Abutilon theophrasti, 312 h, evaluated visually after 13 days, 100=total damage, 0=no damage, read-out: percentage phytotoxicity to the plant, ABUTH. As for the experimental part:
(§1) Seeds of a variety of test species [Ipomoea hederacea (IPOHE); Zea mays (ZEAMX); Echinochloa crus-galli (ECHCG); Setaria faberi (SETFA); Abutilon theophrasti (ABUTH); Amaranthus retroflexus (AMARE)] were sown in standard sterilised soil in pots. After cultivation for one day (pre-emergence) or after 8 days cultivation (post-emergence) under controlled conditions in a glasshouse (at 24/16° C., day/night; 14 hours light; 65% humidity), the plants were sprayed with an aqueous spray solution derived from the formulation of the technical active ingredient in acetone/water (50:50) solution containing 0.5% Tween 20 (polyoxyethelyene sorbitan monolaurate, CAS RN 9005-64-5), subsequently diluted in water, and sprayed to give the stated application rate.
(§2) The test plants were then grown under controlled conditions in a glasshouse (at 24/16° C., day/night; 14 hours light; 65% humidity) and watered twice daily.
(§3) After 13 days for pre and post-emergence, the test was evaluated visually for percentage phytotoxicity to the plant (where 100=total damage to plant; 0=no damage to plant).

The subject of test [2] is Ipomoea hederacea (IPOHE). The description is as above. Particulars: Ipomoea hederacea, 312 h, evaluated visually after 13 days, 100=total damage, 0=no damage, read-out: percentage phytotoxicity to the plant, IPOHE. On the procedure: as §1, §2, §3
Test [3] has as its system Echinochloa crus-galli (ECHCG). The description is as above. Particulars: Echinochloa crus-galli, 312 h, evaluated visually after 13 days, 100=total damage, 0=no damage, read-out: percentage phytotoxicity to the plant, ECHCG. As for the experimental part:
as §1, §2, §3

Test [4] concerns Amaranthus retroflexus (AMARE). The description is as above. To be noted: Amaranthus retroflexus, 312 h, evaluated visually after 13 days, 100=total damage, 0=no damage, read-out: percentage phytotoxicity to the plant, AMARE. As for the experimental part: as §1, §2, §3
Test [5] relates to Setaria faberi (SETFA). The test is described as above. Particulars: Setaria faberi, 312 h, evaluated visually after 13 days, 100=total damage, 0=no damage, read-out: percentage phytotoxicity to the plant, SETFA. On the procedure:
as §1, §2, §3

For test [6], the system named is Zea mays (ZEAMX). The test is described as above. To be noted: Zea mays, 312 h, evaluated visually after 13 days, 100=total damage, 0=no damage, read-out: percentage phytotoxicity to the plant, ZEAMX. On the procedure: as §1, §2, §3
Test [7] relates to Abutilon theophrasti (ABUTH). In words: Herbicidal efficacy, post-emergence application (glasshouse). Particulars: Abutilon theophrasti, 312 h, evaluated visually after 13 days, 100=total damage, 0=no damage, read-out: percentage phytotoxicity to the plant, ABUTH. On the procedure:
as §1, §2, §3

The subject of test [8] is Ipomoea hederacea (IPOHE). The test is described as above. Particulars: Ipomoea hederacea, 312 h, evaluated visually after 13 days, 100=total damage, 0=no damage, read-out: percentage phytotoxicity to the plant, IPOHE. As for the experimental part:
as §1, §2, §3

Test [9] deals with Echinochloa crus-galli (ECHCG). Described as above. To be noted: Echinochloa crus-galli, 312 h, evaluated visually after 13 days, 100=total damage, 0=no damage, read-out: percentage phytotoxicity to the plant, ECHCG. As for the experimental part:
as §1, §2, §3

In test [10] the test system is Amaranthus retroflexus (AMARE). The test is described as above. Particulars: Amaranthus retroflexus, 312 h, evaluated visually after 13 days, 100=total damage, 0=no damage, read-out: percentage phytotoxicity to the plant, AMARE. As for the experimental part:
as §1, §2, §3

The subject of test [11] is Setaria faberi (SETFA). Described as above. To be noted: Setaria faberi, 312 h, evaluated visually after 13 days, 100=total damage, 0=no damage, read-out: percentage phytotoxicity to the plant, SETFA. On the procedure:
as §1, §2, §3

For test [12], the system named is Zea mays (ZEAMX). Described as above. Particulars: Zea mays, 312 h, evaluated visually after 13 days, 100=total damage, 0=no damage, read-out: percentage phytotoxicity to the plant, ZEAMX. On the procedure: as §1, §2, §3

Take `CN1C[C@H](c2cc(C(F)(F)F)n(C)n2)[C@@H](C(=O)Nc2ccc(F)nc2F)C1=O` [Compound 2.8, (3S,4R)-N-(2,6-difluoro-3-pyridyl)-1-methyl-4-[1-methyl-5-(trifluoromethyl)pyrazol-3-yl]-2-oxo-pyrrolidine-3-carboxamide]: the pest or weed control at 250 g/ha in test [1] is 0%; in test [2], 0%; in test [3], 90%; in test [4], 20%; in the test on Setaria faberi (SETFA) [5], 90%; in test [7], 0%. Also, the pest or weed control at 250 g/ha in test [8] was determined as 30%; in test [9] it was 80%; in test [10], 0%; with Setaria faberi (SETFA) [11] it was 80%. Besides, the plant injury at 250 g/ha with Zea mays (ZEAMX) [6] came to 40%; in the test with Zea mays (ZEAMX) [12] it was 80%.

Take `CN1C[C@H](c2cc(C(F)(F)F)n(C)n2)[C@@H](C(=O)Nc2cccc(F)n2)C1=O` [Compound 2.9, (3S,4R)-N-(6-fluoro-2-pyridyl)-1-methyl-4-[1-methyl-5-(trifluoromethyl)pyrazol-3-yl]-2-oxo-pyrrolidine-3-carboxamide]: the pest or weed control at 250 g/ha in [1] was found to be 0%; in test [2] it was 40%; in test [3], 100%; in test [4], 0%; in the test with Setaria faberi (SETFA) [5] it was 90%; in [7], 0%. Moreover, the pest or weed control at 250 g/ha was 50% in test [8], 80% in test [9], 0% in test [10] and 80% in the test with Setaria faberi (SETFA) [11]. Moreover, the results for the plant injury at 250 g/ha in the test on Zea mays (ZEAMX) [6] and in the test with Zea mays (ZEAMX) [12] were 80% and 40%, respectively.

As to `COc1c(F)cccc1NC(=O)[C@H]1C(=O)N(C)C[C@@H]1c1cc(C(F)(F)F)n(C)n1` [Compound 2.6, (3S,4R)-N-(3-fluoro-2-methoxy-phenyl)-1-methyl-4-[1-methyl-5-(trifluoromethyl)pyrazol-3-yl]-2-oxo-pyrrolidine-3-carboxamide], the pest or weed control at 250 g/ha in test [1] was determined as 0%; in [2], 20%; in test [3], 90%; in [4], 0%; with Setaria faberi (SETFA) [5] it was 90%; in test [7], 0%. Also, the pest or weed control at 250 g/ha was found to be 50% in [8], 70% in test [9], 0% in test [10] and 70% with Setaria faberi (SETFA) [11]. Also, the plant injury at 250 g/ha in the test on Zea mays (ZEAMX) [6] and in the test with Zea mays (ZEAMX) [12] was 80% in each case.

Consider `CN1C[C@H](c2cc(C(F)(F)F)n(C)n2)[C@@H](C(=O)Nc2ccc(F)cc2F)C1=O` [Compound 2.3, (3S,4R)-N-(2,4-difluorophenyl)-1-methyl-4-[1-methyl-5-(trifluoromethyl)pyrazol-3-yl]-2-oxo-pyrrolidine-3-carboxamide], for which the pest or weed control at 250 g/ha in test [1] came to 70%; in [2] it was 10%; in test [3] it was 90%; in test [4], 50%; with Setaria faberi (SETFA) [5], 90%; in [7] it was 60%. Also, the pest or weed control at 250 g/ha in test [8] worked out at 10%; in test [9] it was 70%; in test [10] it was 10%; in the test with Setaria faberi (SETFA) [11], 70%. The plant injury at 250 g/ha with Zea mays (ZEAMX) [6] and with Zea mays (ZEAMX) [12] was 60% in each case.
